In patent US9777037B2, “Neurosteroid compounds” (BIONATURE E. A. LTD., priority 2007, dated 2017):

How the values were obtained:
Ishikawa cells = assay: Alkaline phosphatase activity of Ishikawa cells, estrogen agonism/antagonism; format: cell-based, human
Excerpt: Treatment of postmenopausal syndromes with 17β-estradiol (E2) is associated with a higher risk of developing breast and/or endometrial cancer (Arch Intern Med. 166, 1027 (2006)). E2 stimulation of the proliferation of cancer cells is driven by estrogen receptor alpha (ERα) (Mol. Endocrinol. 13, 969 (1999)). Since BNN-50, BNN-93 and BNN-124 may form two hydrogen bonds with an O—O distance of 10.9-12.5 Å and thus may fit the ERα binding cavity (Chem. Biol. 11, 397 (2004)), it was imperative to examine the estrogen agonism/antagonism properties of these neurosteroids using human adenocarcinoma cells from breast (MCF-7 cells) and uterus (Ishikawa cells) as reporters. Full estrogen agonism (E2 at ≧0.1 nM) and non-agonism (vehicle only) controls served to classify the neurosteroids as super, full, partial, weak and marginal agonists depending on whether their estrogenic efficacy was >100, 76-100, 26-75, 10-25 and 1-10% of that of E2 (set equal to 100). Similarly, full antagonism of the effect of E2 (at 0.1 nM) by ICI 182, 780 (at ≧10 nM) and non-antagonism (vehicle only) controls served to classify the neurosteroids as full, partial, weak and marginal antagonists depending on whether their suppression of the effect of E2 was 76-100, 26-75, 10-25 and 1-10% of that of ICI 182, 780. Differences between control and neurosteroid-treated cells were assessed using one-way ANOVA. […]

MCF-7 cells = assay: MCF-7 cell growth (MTT), estrogen agonism/antagonism; format: cell-based, human
Excerpt: Treatment of postmenopausal syndromes with 17β-estradiol (E2) is associated with a higher risk of developing breast and/or endometrial cancer (Arch Intern Med. 166, 1027 (2006)). E2 stimulation of the proliferation of cancer cells is driven by estrogen receptor alpha (ERα) (Mol. Endocrinol. 13, 969 (1999)). Since BNN-50, BNN-93 and BNN-124 may form two hydrogen bonds with an O—O distance of 10.9-12.5 Å and thus may fit the ERα binding cavity (Chem. Biol. 11, 397 (2004)), it was imperative to examine the estrogen agonism/antagonism properties of these neurosteroids using human adenocarcinoma cells from breast (MCF-7 cells) and uterus (Ishikawa cells) as reporters. […] Differences between control and neurosteroid-treated cells were assessed using one-way ANOVA. […]
To determine neurosteroid effects on the growth of MCF-7 human mammary (from ATCC) and Ishikawa endometrial adenocarcinoma cells (from ECACC), the cells were cultured at 37° C. in Dulbecco's Minimal Essential Medium (DMEM) supplemented with 10% Fetal Bovine Serum (FBS, from Biochrom) in 5% CO2 and subcultured using a trypsin 0.25%-EDTA 0.02% solution. Neurosteroid effects on the growth of the cells were assessed using MTT [3-(4,5-dimethylthiazol-2-yl)-2,5-diphenyltetrazolium bromide] and standard methodology (Chem. Biol. 11, 397 (2004)). […]

[1] = tested on: tyrosine hydroxylase mRNA; assay: Tyrosine hydroxylase (TH) RT-PCR in dopaminergic PC12 cells; format: cell-based, rat; settings: dopaminergic PC12 cells (FIG. 6C)
Protocol: Tyrosine Hydroxylase (TH) RT-PCR: Total RNA was extracted from dopaminergic PC12 cells using the Trizol Reagent (Invitrogen Life technologies, CA). One microgram of total RNA was reverse transcribed by the Thermo-Script RT-PCR System (Invitrogen) using random hexamers in a total volume of 20 μl. Two microliters of the RT product was used as a template, amplified by PCR using 2 mM MgCl2, one strength PCR buffer, 0.2 mM of sense and antisense primers, 0.2 mM dNTPs and 2.5 U AmpliTaq Gold DNA polymerase (Perkin Elmer ABD, Foster City, Calif.) in a final reaction volume of 50 μl. PCR was performed in a Perkin Elmer DNA Thermal Cycler. Primers for TH were 5′-[…]-3′ (sense), and 5-[…]-3 (antisense) and for G3PDH were, 5′-[…]-3′ (sense), and 5′-[…]-3′ (antisense). Oligonucleotides were synthesized by MWG-Biotech AG (Munich, Germany). After reverse transcription, the cDNA product was amplified by PCR, at 33 cycles. The cycle number (33) was chosen such that amplification of the products was in the linear range with respect to the amount of input cDNA. PCR for G3PDH was performed in parallel to assure good quality of RNA and cDNA preparations. Each cycle consisted of 60 s at 92° C. for denaturation, 120 s at 53° C. for annealing, and 180 s at 72° C. for extension (60 s at 98° C., 90 s at 55° C., and 150 s at 72° C. for G3PDH respectively). 10 μl of the amplified products (368 bp for TH and 983 bp for G3PDH) were separated on a 2% agarose gel and visualized by ethidium bromide staining.

## C[C@]12CC[C@H](O)CC1=CCC1C2CC[C@@]2(C)C1CC[C@@]21CO1 (stereo partly drawn) [BNN-50, 17β-spiro-[5-androsten-17,2′-oxiran]-3β-ol]
Ishikawa cells
  E2 agonism (at 1 uM), Ishikawa AlkP: non-significant
Ishikawa cells; against E2 at 0.1 nM
  E2 antagonism (at 1 uM), Ishikawa AlkP: marginal (1-10% of that of ICI 182, 780)
MCF-7 cells
  E2 agonism (at 1 uM), MCF-7 cell growth: non-significant
MCF-7 cells; against E2 at 0.1 nM
  E2 antagonism (at 1 uM), MCF-7 cell growth: non-significant
[1]
  induction of tyrosine hydroxylase mRNA: strong induction
